System: yeast genes (expressed mRNA)
Assay: DNA chip measurement of expressed mRNA of yeast genes after culture with a toxic chemical substance
Format: cell-based, Saccharomyces cerevisiae S288C
Summary of the method: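 Yeast S288C, YPD 25° C; toxicant at log phase, 2 h, sublethal growth-inhibiting conc.; no-chemical control. Hot SDS/acetate RNA extraction, oligo-dT mRNA, Cy3/Cy5-dUTP RT. Whole-genome chip, 65° C >12 h. Readout: treated/control intensity ratio, ≥2 significant.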

SMILES: CN(C)C(=S)SSC(=S)N(C)C [(10), Tetramethylthiuram disulfide]
- The level of expressed mRNA in the presence of chemical substance/The level of expressed mRNA in the absence of chemical substance (yeast gene YNL077W): 5.1
- The level of expressed mRNA in the presence of chemical substance/The level of expressed mRNA in the absence of chemical substance (yeast gene YNL092W, cultured two hours with substance): 1.5
- The level of expressed mRNA in the presence of chemical substance/The level of expressed mRNA in the absence of chemical substance (yeast gene YNL115C, cultured two hours with substance): 1.9
- The level of expressed mRNA in the presence of chemical substance/The level of expressed mRNA in the absence of chemical substance (yeast gene YNL156C, cultured two hours with substance): 1.9
- The level of expressed mRNA in the presence of chemical substance/The level of expressed mRNA in the absence of chemical substance (yeast gene YNL190W, cultured two hours with substance): 1.1
- The level of expressed mRNA in the presence of chemical substance/The level of expressed mRNA in the absence of chemical substance (yeast gene YNL195C, cultured two hours with the chemical substance): 11.7
- The level of expressed mRNA in the presence of chemical substance/The level of expressed mRNA in the absence of chemical substance (yeast gene YNL208W, cultured two hours with substance): 3.1
- The level of expressed mRNA in the presence of chemical substance/The level of expressed mRNA in the absence of chemical substance (yeast gene YNL234W, cultured two hours with substance): 3.3
- The level of expressed mRNA in the presence of chemical substance/The level of expressed mRNA in the absence of chemical substance (yeast gene YNL277W): 10.9
- The level of expressed mRNA in the presence of chemical substance/The level of expressed mRNA in the absence of chemical substance (yeast gene YNL281W, cultured two hours with substance): 1.6
- The level of expressed mRNA in the presence of chemical substance/The level of expressed mRNA in the absence of chemical substance (yeast gene YNL300W, cultured two hours with substance): 0.2
- The level of expressed mRNA in the presence of chemical substance/The level of expressed mRNA in the absence of chemical substance (yeast gene YNL305C, cultured two hours with substance): 2.1
- The level of expressed mRNA in the presence of chemical substance/The level of expressed mRNA in the absence of chemical substance (yeast gene YNL331C): 36.3
- The level of expressed mRNA in the presence of chemical substance/The level of expressed mRNA in the absence of chemical substance (yeast gene YNL331C, cultured for two hours with substance): 36.3
- The level of expressed mRNA in the presence of chemical substance/The level of expressed mRNA in the absence of chemical substance (yeast gene YNR064C, cultured two hours with substance): 2.1
- The level of expressed mRNA in the presence of chemical substance/The level of expressed mRNA in the absence of chemical substance (yeast gene YNR068C, cultured two hours with substance): 14.4
- The level of expressed mRNA in the presence of chemical substance/The level of expressed mRNA in the absence of chemical substance (yeast gene YNR073C): 16.8
- The level of expressed mRNA in the presence of chemical substance/The level of expressed mRNA in the absence of chemical substance (yeast gene YOL002C, cultured two hours with the substance): 0.3
- The level of expressed mRNA in the presence of chemical substance/The level of expressed mRNA in the absence of chemical substance (yeast gene YOL032W, cultured two hours with substance): 3.0
- The level of expressed mRNA in the presence of chemical substance/The level of expressed mRNA in the absence of chemical substance (yeast gene YOL036W, cultured two hours with substance): 2.8
- The level of expressed mRNA in the presence of chemical substance/The level of expressed mRNA in the absence of chemical substance (yeast gene YOL047C, cultured two hours with substance): 2.3
- The level of expressed mRNA in the presence of chemical substance/The level of expressed mRNA in the absence of chemical substance (yeast gene YOL058W): 15.7
- The level of expressed mRNA in the presence of chemical substance/The level of expressed mRNA in the absence of chemical substance (yeast gene YOL071W, cultured two hours with substance): 2.3
- The level of expressed mRNA in the presence of chemical substance/The level of expressed mRNA in the absence of chemical substance (yeast gene YOL082W, cultured two hours with substance): 2.0
- The level of expressed mRNA in the presence of chemical substance/The level of expressed mRNA in the absence of chemical substance (yeast gene YOL083W, cultured two hours with substance): 2.3
- The level of expressed mRNA in the presence of chemical substance/The level of expressed mRNA in the absence of chemical substance (yeast gene YOL101C, cultured two hours with substance): 0.3
- The level of expressed mRNA in the presence of chemical substance/The level of expressed mRNA in the absence of chemical substance (yeast gene YOL117W, cultured two hours with substance): 4.1
- The level of expressed mRNA in the presence of chemical substance/The level of expressed mRNA in the absence of chemical substance (yeast gene YOL131W, cultured two hours with substance): 8.1
- The level of expressed mRNA in the presence of chemical substance/The level of expressed mRNA in the absence of chemical substance (yeast gene YOL150C, cultured two hours with substance): 8.3
- The level of expressed mRNA in the presence of chemical substance/The level of expressed mRNA in the absence of chemical substance (yeast gene YOL162W, cultured two hours with substance): 6.8
- The level of expressed mRNA in the presence of chemical substance/The level of expressed mRNA in the absence of chemical substance (yeast gene YOL163W (transport facilitation protein gene)): 6.2
- The level of expressed mRNA in the presence of chemical substance/The level of expressed mRNA in the absence of chemical substance (yeast gene YOL165C): 23.3
- The level of expressed mRNA in the presence of chemical substance/The level of expressed mRNA in the absence of chemical substance (yeast gene YOL165C, cultured for two hours with substance): 23.3
- The level of expressed mRNA in the presence of chemical substance/The level of expressed mRNA in the absence of chemical substance (yeast gene YOR019W, cultured two hours with substance): 7.1
- The level of expressed mRNA in the presence of chemical substance/The level of expressed mRNA in the absence of chemical substance (yeast gene YOR197W, cultured two hours with substance): 0.7
- The level of expressed mRNA in the presence of chemical substance/The level of expressed mRNA in the absence of chemical substance (yeast gene YOR248W, cultured two hours with substance): 0.4
- The level of expressed mRNA in the presence of chemical substance/The level of expressed mRNA in the absence of chemical substance (yeast gene YOR382W, cultured two hours with substance): 12.8
- The level of expressed mRNA in the presence of chemical substance/The level of expressed mRNA in the absence of chemical substance (yeast gene YOR383C): 4.5
- The level of expressed mRNA in the presence of chemical substance/The level of expressed mRNA in the absence of chemical substance (yeast gene YOR391C, cultured two hours with substance): 18.1
- The level of expressed mRNA in the presence of chemical substance/The level of expressed mRNA in the absence of chemical substance (yeast gene YPL017C, metabolism protein genes): 6.7
- The level of expressed mRNA in the presence of chemical substance/The level of expressed mRNA in the absence of chemical substance (yeast gene YPL052W, cultured two hours with substance): 4.8
- The level of expressed mRNA in the presence of chemical substance/The level of expressed mRNA in the absence of chemical substance (yeast gene YPL087W, cultured two hours with substance): 2.2
- The level of expressed mRNA in the presence of chemical substance/The level of expressed mRNA in the absence of chemical substance (yeast gene YPL171C, cultured for two hours with substance): 50.6
- The level of expressed mRNA in the presence of chemical substance/The level of expressed mRNA in the absence of chemical substance (yeast gene YPL196W, cultured two hours with substance): 2.8
- The level of expressed mRNA in the presence of chemical substance/The level of expressed mRNA in the absence of chemical substance (yeast gene YPL206C, cultured two hours with substance): 1.1
- The level of expressed mRNA in the presence of chemical substance/The level of expressed mRNA in the absence of chemical substance (yeast gene YPL222W, cultured two hours with substance): 3.4
- The level of expressed mRNA in the presence of chemical substance/The level of expressed mRNA in the absence of chemical substance (yeast gene YPL223C (stress protein genes)): 16.5
- The level of expressed mRNA in the presence of chemical substance/The level of expressed mRNA in the absence of chemical substance (yeast gene YPR023C, cultured two hours with substance): 2.8
- The level of expressed mRNA in the presence of chemical substance/The level of expressed mRNA in the absence of chemical substance (yeast gene YPR079W, cultured two hours with substance): 2.8
- The level of expressed mRNA in the presence of chemical substance/The level of expressed mRNA in the absence of chemical substance (yeast gene YPR151C, cultured two hours with substance): 9.5
